Consider 5 compounds from patent publication US20010046968A1, “Opioid growth factor modulates angiogenesis” (priority 2000, published 2001).

Entries after “also recorded” stand apart in the source; their conditions may differ.

The test system of data set [1] is CAM blood vessels (angiogenesis). Kind of data set: Chorioallantoic membrane (CAM) model, drug-impregnated methylcellulose disk, image analysis of blood vessels (Example 1). It is filed as in vivo, chicken. The settings on record: for effect on angiogenesis / blood vessel growth vs control: 5 μg each per disk; for Blood Vessel Mean Length / Blood Vessel Number / Blood Vessel Length: 48 hours, mean ± SEM; for Blood Vessel Length: total length. The protocol:
(§1) The CAM model utilized in these studies has been described by Mazo et al. (FASEB J. 13: A527, 1999). In brief, fertilized white broiler chicken eggs were obtained from a local hatchery and kept at room temperature for 48 hours. The outside of the shells were washed with soap, and placed in a 70% ethyl alcohol bath for 30 seconds. The eggs were incubated at 37° C. for three days and rotated 180 degrees three times daily. After incubation, the eggs were cleansed with an iodine solution and dried on a sterile tray. The eggs were cracked, and the embryos explanted into spherical plastic 100 mm×25 mm weigh boats. Specimens were covered with a plastic lid, placed in a humidified chamber at 37° C., and maintained for 48 to 72 hours until the CAM achieved at least a 10 mm diameter.
Methylcellulose disks were prepared as reported by Mazo et al. (FASEB J. 13: A527, 1999). […] These doses were selected on the basis of prior animal and culture studies (Zagon I. S. et al., Am. J Physiol, 270: R22-R32 (1996); McLaughlin P. J. et al., Int. J. Oncol., 14: 991-998 (1999)). An equivalent volume of distilled water was utilized as a control (n=13). Another series of experiments employed retinoic acid (RA: 1 μg) (Oikawa T. et al., Cancer Letters, 48: 157-162 (1989)) (n=12), VEGF (1 μg) (Wilting J. et al., Cell Tissue Res., 274: 163-174 (1993)) (n=10) and an equivalent volume of water (n=10) to validate the CAM model employed, and to provide an internal comparison to the potential angiogenic effects of OGF with other known angioactive agents. These methylcellulose solutions were placed on the tips of 3.2 mm diameter Teflon rods and allowed to dry at room temperature for 1 hour under a vacuum hood. The resultant dried disks were removed from the Teflon rods and placed on the outer third of the CAM. Only one disk was placed on each CAM. The eggs were returned to the incubator for an additional 48 hours of growth prior to examination by image analysis (Mazo J. E. et al., FASEB J., 13: A527 (1999)).
Image analysis was preformed as described previously (Mazo J. E. et al., FASEB J, 13: A527 (1999)). The location of the disk was located visually on the CAM. An identifying mark was placed in the center of the disk and 2 ml of a 10% intralipid solution was injected into the CAM obscuring the underlying yolk vessels and providing an opaque white background for the superficial vessels. The CAM was imaged on a three-chip digital camera (DKC 500 Sony, Tokyo, Japan), digitized, and exported to a personal computer (FIG. 1). A 100 mm^2 region was defined around the disk in which blood vessel quantitation was performed (Optimas 6.0, Mediacybernetics, Bothell, Wash.). Calibration was achieved by imaging a ruler placed adjacent to the embryo preparation.
All arteries and veins in this designated region centered on the applied disk were analyzed. From the digitized image, an overlying mask was created and all blood vessels were traced within the region in an unblinded manner by two different individuals. The total number of blood vessels were counted and their individual lengths added to obtain total blood vessel length.
Data were exported to Microsoft Excel (Excel 97, Microsoft, Redmond, Wash.). All values were expressed as the mean±standard error of the mean. Statistical analysis was performed using the SigmaStat 1.0 statistical software package (Jandel, San Rafael, Calif.). The Mann-Whitney rank sum test or the Student t test was used to compare continuous data. Either the Fischer exact test or χ^2 test were used for dichotomous data. A p value of less than 0.05 indicated statistical significance.

In data set [2] the test system is CAM arteries and veins (angiogenesis). In words: CAM assay with separate counting of arteries and veins (Example 2). The format is in vivo, chick. The conditions noted are these: for Number of Vessels, Artery / Number of Vessels, Vein / Total Vessel Length, Artery / Total Vessel Length, Vein / Number of Vessels, A/V Ratio / Total Vessel Length, A/V Ratio: mean ± SEM. The protocol: The CAM assay described above was utilized. After 3 days of incubation, fertilized chick embryos were explanted and 3.2 mm methylcellulose disk containing a compound was placed onto the CAM surface. After 2 days of growth, the CAM arteries and veins were identified and imaged with a digital camera. Arteries and veins were identified based on the presence of vessel pulsation (arteries), color, and direction of blood flow within the vessels. The main artery was oriented vertically with flow originating inferiorly. A white 10% intralipid solution was injected into the CAM to enhance visualization. Total number and length of veins and arteries were counted and measured.

For data set [3], the system named is embryos. Kind of data set: Embryo survival after placement of drug onto the CAM. The conditions noted are these: 48 hours after placement of drug onto the CAM. It is filed as in vivo, chicken. The protocol:
as §1
Methylcellulose disks were prepared as reported by Mazo et al. (FASEB J. 13: A527, 1999). […] These doses were selected on the basis of prior animal and culture studies (Zagon I. S. et al., Am. J Physiol, 270: R22-R32 (1996); McLaughlin P. J. et al., Int. J. Oncol., 14: 991-998 (1999)). An equivalent volume of distilled water was utilized as a control (n=13). […]

Setting [4] is: 1 μg per disk, another series of experiments.

As for `C=CCN1CC[C@]23c4c5ccc(O)c4O[C@H]2C(=O)CC[C@@]3(O)[C@H]1C5` [NAL, naloxone, reference compound], in data set [1], the “effect on angiogenesis / blood vessel growth vs control” value is listed as “no effect on vessel growth”.
With `O=C1CC[C@@]2(O)[C@H]3Cc4ccc(O)c5c4[C@@]2(CCN3CC2CC2)[C@H]1O5` [Naltrexone, reference compound], the “effect on angiogenesis / blood vessel growth vs control” value in data set [1] was “Vessel inhibition is no longer seen”. In data set [1] (5 μg per disk), the “effect on total blood vessel length vs control” value is “increased” and the “effect on total number of blood vessels vs control” value is recorded as “increased”. Also, in data set [1] (5 μg per disk, listed as NTX), the “effect on mean blood vessel length vs control” value is on record as “decreased; also recorded: marked decrease”. Besides, in data set [2] (0.1 μg disk), the “Number of Vessels, Artery” value is 80 ± 6; the “Number of Vessels, Vein” value worked out at 83 ± 4; the “Total Vessel Length, Artery” value turned out to be 112 ± 6 mm; the “Total Vessel Length, Vein” value is given as 118 ± 6 mm. For the same compound, in data set [2] (5.0 μg disk), the “Number of Vessels, Artery” value is reported as 203 ± 7; the “Number of Vessels, Vein” value came out at 97 ± 4; the “Total Vessel Length, Artery” value turned out to be 174 ± 4 mm; the “Total Vessel Length, Vein” value came out at 105 ± 2 mm. In addition, in data set [2] (summary of Table II), the “effect on mean length of blood vessels” value is “decreased”; the “effect on total number and length of blood vessels in comparison to controls” value was “markedly increased both total number and length of all blood vessels”.
Regarding `CC1=C(/C=C/C(C)=C/C=C/C(C)=C/C(=O)O)C(C)(C)CCC1` [Retinoic acid, retinoic acid, reference compound], in data set [1] (1 μg per disk), the “decrease in number of blood vessels compared to control group” value came to 60%, the “decrease in total blood vessel length compared to control group” value is given as 33% and the “increase in mean blood vessel length relative to control group” value came out at 75%. Also, in data set [1] (setting [4]), the “Blood Vessel Mean Length” value worked out at 2.07 ± 0.13 mm, the “Blood Vessel Number” value amounted to 79 ± 10 and the “Blood Vessel Length” value is on record as 153 ± 11 mm. In addition, in data set [2] (dose not given), the “Number of Vessels, A/V Ratio” value is listed as 1.5 ± 0.1; the “Number of Vessels, Artery” value turned out to be 60 ± 5; the “Number of Vessels, Vein” value came to 39 ± 3; the “Total Vessel Length, A/V Ratio” value is listed as 1.3 ± 0.1. Further, in data set [2] (dose not given), the “Total Vessel Length, Artery” value is given as 83 ± 5 mm and the “Total Vessel Length, Vein” value was found to be 66 ± 4 mm.
With VEGF, in data set [1] (1 μg per disk), the “decrease in mean blood vessel length in comparison to control” value stood at 33%, the “effect on blood vessel growth vs control” value is reported as “excitatory effect on blood vessel growth”, the “effect on calculated mean vessel length vs control” value was “decreased” and the “effect on number of blood vessels vs control” value is given as “markedly increased”. For the same compound, in data set [1] (1 μg per disk), the “effect on total length of blood vessels vs control” value is recorded as “marked increase”, the “increase in total vessel length in comparison to control” value stood at 22% and the “increase in vessel number in comparison to control” value came to 83%. Further, in data set [1] (setting [4]), the “Blood Vessel Mean Length” value is recorded as 0.79 ± 0.02 mm, the “Blood Vessel Number” value came to 358 ± 16 and the “Blood Vessel Length” value is 280 ± 7 mm. Also, in data set [2] (0.2 μg disk), the “Number of Vessels, A/V Ratio” value came out at 1.3 ± 0.1; the “Number of Vessels, Artery” value turned out to be 83 ± 5; the “Number of Vessels, Vein” value is on record as 75 ± 11; the “Total Vessel Length, A/V Ratio” value is 1.2 ± 0.1. Besides, in data set [2] (0.2 μg disk), the “Total Vessel Length, Artery” value is 117 ± 3 mm and the “Total Vessel Length, Vein” value is listed as 109 ± 14 mm. In data set [2] (1.0 μg disk), the “Number of Vessels, A/V Ratio” value was found to be 2.2 ± 0.2; the “Number of Vessels, Artery” value worked out at 248 ± 13; the “Number of Vessels, Vein” value came to 120 ± 7; the “Total Vessel Length, A/V Ratio” value amounted to 1.5 ± 0.2. Besides, in data set [2] (1.0 μg disk), the “Total Vessel Length, Artery” value amounted to 173 ± 8 mm and the “Total Vessel Length, Vein” value stood at 117 ± 5 mm.
[Met^5]-enkephalin [OGF]: the “effect on angiogenesis / blood vessel growth vs control” value in data set [1] is listed as “blood vessel growth was suppressed; also recorded: marked inhibitory effect on angiogenesis”. Also, in data set [1] (5 μg per disk), the “decrease in number of blood vessels in comparison to controls” value worked out at 35%, the “decrease in total blood vessel length in contrast to control” value was determined as 20%, the “effect on mean blood vessel length vs control” value is “significantly increases” and the “effect on total blood vessel length vs control” value was “significantly inhibited”. Also, in data set [1] (5 μg per disk), the “effect on total number of blood vessels vs control” value was “significantly decreases” and the “increase in mean blood vessel length from control values” is 23%. In addition, the “Blood Vessel Number” value in data set [1] (5 μg per disk, 100 mm^2 region around disk) worked out at 102 ± 11. In addition, in data set [1] (5 μg per disk, 100 mm^2 region), the “Blood Vessel Mean Length” value worked out at 1.81 ± 0.13 mm and the “Blood Vessel Length” value was determined as 179 ± 12 mm. Moreover, in data set [2] (1.0 μg disk), the “Number of Vessels, A/V Ratio” value turned out to be 1.1 ± 0.2; the “Number of Vessels, Artery” value came out at 53 ± 5; the “Number of Vessels, Vein” value is 56 ± 8; the “Total Vessel Length, A/V Ratio” value came to 1.2 ± 0.2. For the same compound, in data set [2] (1.0 μg disk), the “Total Vessel Length, Artery” value came to 84 ± 5 mm and the “Total Vessel Length, Vein” value was 81 ± 11 mm. For the same compound, in data set [2] (5.0 μg disk), the “Number of Vessels, A/V Ratio” value came out at 1.6 ± 0.1; the “Number of Vessels, Artery” value amounted to 79 ± 4; the “Number of Vessels, Vein” value amounted to 51 ± 2; the “Total Vessel Length, A/V Ratio” value came out at 1.3 ± 0.1. In data set [2] (5.0 μg disk), the “Total Vessel Length, Artery” value was 107 ± 4 mm and the “Total Vessel Length, Vein” value was found to be 82 ± 3 mm. Besides, in data set [2] (summary of Table II), the “effect on artery/vein ratios for vessel number and length” value is “decreased artery/vein ratios”; the “effect on total number and length of blood vessels in comparison to controls” value was “decreased total number and length of blood vessels”. Also, in data set [3], the “toxicity (embryo survival)” value is “all embryos survived”.
